PMC2788029 (Journal of molecular biology, 2009)
“Also recorded” adds a separate entry of the source. Like-named read-outs stand apart in the source and are kept apart here.

Experiments:
[1] = molecular target: T1, T4 lysozyme L99A/M102Q (Enterobacteria phage T4, UniProt P00720, C54T/C97A/L99A/M102Q); conditions: cited from earlier work
[2] = molecular target: T1, T4 lysozyme L99A/M102Q; assay: biochemical; format: binding
[3] = molecular target: T1, T4 lysozyme L99A/M102Q; format: binding
[4] = free energy of binding by ITC at 10°C, pH 6.8, prospective set

SMILES: Nc1ccccc1O [2-aminophenol]
- binding to L99A/M102Q (known) [1]: non-binder; also recorded: does not bind detectably

SMILES: CCOC1CCC=CO1 (stereo not drawn) [2-ethoxy-3,4-dihydro-2h-pyran]
- binding free energy, estimated [2]: -3.88 to -2.59 kcal/mol
- ΔGb,exp (binding class) [2]: weak

SMILES: CCOc1ccccc1O [2-ethoxyphenol]
- ΔGb,exp [3]: -4.02 ± 0.03 kcal/mol

SMILES: CCc1ccccc1O [2-ethylphenol]
- ΔGb,exp [3]: -4.57 ± 0.11 kcal/mol

SMILES: Cc1ccccc1O [2-methylphenol]
- ΔGb,exp [3]: -4.44 ± 0.11 kcal/mol

SMILES: O=[N+]([O-])c1cccs1 [2-nitrothiophene]
- ΔGb,exp [3, 4]: -4.85 ± 0.25 kcal/mol

SMILES: CCCc1ccccc1O [2-propylphenol]
- ΔGb,exp [3]: -5.33 ± 0.05 kcal/mol

SMILES: c1cc2c([nH]1)CCCC2 [4,5,6,7-tetrahydroindole]
- ΔGb,exp [3, 4]: -4.61 ± 0.09 kcal/mol

SMILES: Clc1cn[nH]c1 [4-chloro-1h-pyrazole]
- binding free energy, estimated [2]: -3.88 to -2.59 kcal/mol
- ΔGb,exp (binding class) [2]: weak

SMILES: C=Cc1ccncc1 [4-vinylpyridine]
- binding to L99A/M102Q (known) ([1]; known ligands and non-binders): non-binder

SMILES: Cc1ccc(Cl)cc1O [5-chloro-2-methylphenol]
- ΔGb,exp [3]: -5.04 ± 0.07 kcal/mol

SMILES: CC(=O)OCc1ccccc1 [benzyl acetate]
- ΔGb,exp [3, 4]: -4.48 ± 0.16 kcal/mol

SMILES: Oc1ccccc1O [catechol, reference compound]
- binding to L99A/M102Q (known) ([1]; known ligands and non-binders): is a ligand
- ΔGb,exp [3]: -4.16 ± 0.03 kcal/mol

SMILES: O=Nc1ccccc1 [nitrosobenzene]
- binding free energy, estimated [2]: -3.88 to -2.59 kcal/mol
- ΔGb,exp (binding class) [2]: weak
- Kd ([2]; affinity estimated from concentration where significant Tm upshift was observed): ~1000 µM

SMILES: Oc1ccccc1 [phenol]
- ΔGb,exp [1]: -5.24 kcal/mol

SMILES: c1cc2sccc2s1 [thieno[3,2-b]thiophene]
- ΔGb,exp [3, 4]: -4.67 ± 0.17 kcal/mol
